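Interpolation was linear, between the two tested concentrations surrounding the appropriate level; five concentrations were tested over 48 hours in 96-well plates. GI50: concentration for 50% inhibition of growth.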 Calls of active or inactive are those of the source. No stated cut-off is given here; in the data, active = GI50 up to about 1.1 µM and inactive = higher. Square brackets hold non-standard residues; d marks the D form. Peptide text beside a SMILES is read from it. * marks the point of attachment. ξ: configuration not given here. ξW = NC(Cc1c[nH]c2ccccc12)C(=O)O; X29 = O=C(O)[C@H]1CCC[C@H]1N*; ξF = NC(Cc1ccccc1)C(=O)O; Boc = CC(C)(C)OC(=O)*; ξK = NCCCCC(N)C(=O)O; ξT = CC(O)C(N)C(=O)O; tBu = CC(C)(C)*
Columns and labels:
Experiment in all cases: DTP human tumour cell line panel, 48 h
[1] = system: CAKI-1
[2] = system: COLO 205
[3] = system: DU-145
[4] = system: EKVX
[5] = system: HCC 2998
[6] = system: HCT-15
[7] = system: HOP-62
[8] = system: IGROV-1
[9] = system: K562
[10] = system: MDA-MB-231
[11] = system: MOLT-4
[12] = system: NCI-H23
[13] = system: OVCAR-8
[14] = system: SK-MEL-28
[15] = system: SK-MEL-2
[16] = system: SR
[17] = system: SW-620
[18] = system: TK-10
[19] = system: MDA-N

CCCCCCCCCCC(O)[C@H]1CCC(C2CC[C@H]([C@H](O)CCCCCCCCCCC(O)CC3=CC(C)OC3=O)O2)O1 (some centres not stated)
GI50 [1]: 2.18 µM (inactive) | GI50 [2]: 1.48 µM (inactive) | GI50 [3]: 4.57 µM (inactive) | GI50 [4]: 1.23 µM (inactive) | GI50 [5]: 3.59 µM (inactive) | GI50 [6]: 2.01 µM | GI50 [7]: 1.97 µM (inactive) | GI50 [8]: 1.66 µM (inactive) | GI50 [9]: 1.8 µM (inactive) | GI50 [10]: 1.61 µM (inactive) | GI50 [11]: 2.47 µM (inactive) | GI50 [12]: 0.0493 µM (active) | GI50 [13]: 1.48 µM (inactive) | GI50 [14]: 2.05 µM (inactive) | GI50 [15]: 1.53 µM (inactive) | GI50 [16]: 1.9 µM (inactive) | GI50 [17]: 1.87 µM (inactive) | GI50 [18]: 1.59 µM (inactive)

Cc1ccc(S(=O)(=O)N2CCCCC2CCO)cc1 (configuration not stated)
GI50 [1]: > 100 µM (inactive) | GI50 [2]: > 100 µM (inactive) | GI50 [4]: > 100 µM (inactive) | GI50 [5]: > 100 µM (inactive) | GI50 [6]: > 100 µM | GI50 [7]: > 100 µM (inactive) | GI50 [8]: > 100 µM (inactive) | GI50 [9]: > 100 µM (inactive) | GI50 [11]: > 100 µM (inactive) | GI50 [12]: > 100 µM (inactive) | GI50 [13]: > 100 µM (inactive) | GI50 [15]: > 100 µM (inactive) | GI50 [16]: > 100 µM (inactive) | GI50 [17]: > 100 µM (inactive) | GI50 [18]: > 100 µM (inactive)

COc1ccc(/C(Cl)=C(\c2ccc(OCCN(C)C)cc2)c2ccc(OC(=O)C(C)(C)C)cc2)cc1
GI50 [1]: 14.7 µM (inactive) | GI50 [2]: 13.9 µM (inactive) | GI50 [4]: 13.7 µM (inactive) | GI50 [5]: 15.7 µM (inactive) | GI50 [6]: 10.6 µM | GI50 [7]: 16.1 µM (inactive) | GI50 [8]: 17.7 µM (inactive) | GI50 [9]: 3.01 µM (inactive) | GI50 [11]: 2.91 µM (inactive) | GI50 [12]: 15.7 µM (inactive) | GI50 [13]: 15.8 µM (inactive) | GI50 [14]: 11.1 µM (inactive) | GI50 [15]: 15.9 µM (inactive) | GI50 [16]: 7.69 µM (inactive) | GI50 [17]: 13.2 µM (inactive) | GI50 [18]: 18.1 µM (inactive)

CN/C(=N\n1cnnc1)OC
GI50 [1]: > 100 µM (inactive) | GI50 [2]: > 100 µM (inactive) | GI50 [3]: > 100 µM (inactive) | GI50 [4]: > 100 µM (inactive) | GI50 [5]: > 100 µM (inactive) | GI50 [6]: > 100 µM | GI50 [7]: > 100 µM (inactive) | GI50 [8]: > 100 µM (inactive) | GI50 [9]: > 100 µM (inactive) | GI50 [10]: > 100 µM (inactive) | GI50 [19]: > 100 µM (inactive) | GI50 [11]: > 100 µM (inactive) | GI50 [12]: > 100 µM (inactive) | GI50 [13]: > 100 µM (inactive) | GI50 [14]: > 100 µM (inactive) | GI50 [15]: > 100 µM (inactive) | GI50 [16]: > 100 µM (inactive) | GI50 [17]: > 100 µM (inactive)

O=c1cc(-c2ccccc2)oc2cc(OCCCCCCCCCCOc3ccc4c(=O)cc(-c5ccccc5)oc4c3)ccc12
GI50 [1]: > 100 µM (inactive) | GI50 [2]: > 100 µM (inactive) | GI50 [4]: > 100 µM (inactive) | GI50 [5]: > 100 µM (inactive) | GI50 [6]: > 100 µM | GI50 [7]: > 100 µM (inactive) | GI50 [8]: > 100 µM (inactive) | GI50 [9]: > 100 µM (inactive) | GI50 [11]: > 100 µM (inactive) | GI50 [12]: > 100 µM (inactive) | GI50 [13]: > 100 µM (inactive) | GI50 [14]: > 100 µM (inactive) | GI50 [15]: > 100 µM (inactive) | GI50 [16]: > 100 µM (inactive) | GI50 [17]: > 100 µM (inactive)

CC[C@]12C=CCN3CCC4(c5cc([C@@]6(C(=O)OC)CC7CN(CCc8c6[nH]c6ccccc86)C[C@@H]6CCC[C@H]76)c(OC)cc5N(C)C4[C@](O)(C(=O)OC)C1OC(C)=O)C32 (some centres not stated)
GI50 [1]: 0.962 µM (active) | GI50 [2]: 0.083 µM (active) | GI50 [3]: 0.0165 µM (active) | GI50 [4]: 0.968 µM (active) | GI50 [5]: 0.29 µM (active) | GI50 [6]: 0.443 µM | GI50 [7]: 0.106 µM (active) | GI50 [8]: 0.218 µM (active) | GI50 [9]: 0.0513 µM (active) | GI50 [10]: 0.0762 µM (active) | GI50 [19]: 0.00363 µM (active) | GI50 [11]: 0.155 µM (active) | GI50 [12]: 0.116 µM (active) | GI50 [13]: 0.185 µM (active) | GI50 [14]: 0.168 µM (active) | GI50 [15]: 0.179 µM (active) | GI50 [16]: 0.0528 µM (active) | GI50 [17]: 0.122 µM (active)

O=c1[nH]c(=O)n(COCCO)cc1-c1ccccc1
GI50 [1]: > 100 µM (inactive) | GI50 [2]: > 100 µM (inactive) | GI50 [3]: > 100 µM (inactive) | GI50 [4]: > 100 µM (inactive) | GI50 [5]: > 100 µM (inactive) | GI50 [6]: > 100 µM | GI50 [7]: > 100 µM (inactive) | GI50 [8]: > 100 µM (inactive) | GI50 [9]: > 100 µM (inactive) | GI50 [10]: > 100 µM (inactive) | GI50 [19]: > 100 µM (inactive) | GI50 [11]: > 100 µM (inactive) | GI50 [12]: > 100 µM (inactive) | GI50 [13]: > 100 µM (inactive) | GI50 [14]: > 100 µM (inactive) | GI50 [15]: > 100 µM (inactive) | GI50 [16]: > 100 µM (inactive) | GI50 [17]: > 100 µM (inactive) | GI50 [18]: > 100 µM (inactive)

CC(OC(C)(C)C)C(NC(=O)C(CCCCNC(=O)OC(C)(C)C)NC(=O)C(Cc1c[nH]c2ccccc12)NC(=O)C(N)Cc1ccccc1)C(=O)NC(Cc1ccccc1)C(=O)N[C@@H]1CCC[C@@H]1C(=O)O (some centres not stated) (H-[ξF][ξW][ξK](Boc)[ξT](tBu)[ξF]-X29)
GI50 [1]: > 100 µM (inactive) | GI50 [2]: 27.4 µM (inactive) | GI50 [3]: 46.2 µM (inactive) | GI50 [4]: > 100 µM (inactive) | GI50 [5]: 19.7 µM (inactive) | GI50 [6]: > 10 µM | GI50 [7]: > 100 µM (inactive) | GI50 [8]: 51.4 µM (inactive) | GI50 [9]: 51.6 µM (inactive) | GI50 [10]: 38.6 µM (inactive) | GI50 [19]: 52.1 µM (inactive) | GI50 [11]: 41.6 µM (inactive) | GI50 [12]: 34 µM (inactive) | GI50 [13]: > 100 µM (inactive) | GI50 [14]: 75.5 µM (inactive) | GI50 [15]: 16.7 µM (inactive) | GI50 [16]: 35.5 µM (inactive) | GI50 [17]: 47.1 µM (inactive)
